In US20220041616A1, “SPIRO COMPOUND AND MEDICAL USES THEREOF” (The National Institutes of Pharmaceutical R&D Co., Ltd., priority 2018, published 2022):

Target: ACC2 (Homo sapiens, UniProt O00763)
Test: In vitro inhibition of ACC2 activity, ADP-Glo Kinase Analysis
Format: biochemical
Conditions: 1.1 nM ACC2, 20 μM acetyl-CoA, 15 μM ATP
Source text: ADP-Glo™ Kinase Analysis Kit (Promega) is used for the in vitro analysis of the inhibitory effect of the present compound on ACC1 or ACC2. ADP-Glo™ Kinase Analysis is a kinase detection analysis of luminescence method. ADP is produced in the process of catalyzing the substrate by ACC. ADP is converted into ATP which is then converted into light by Ultra-Glo™ luciferase. ADP is quantified by detecting the light signal, thus the enzyme activity can be measured by quantification of the ADP amount produced during the enzyme reaction. The analysis is carried out in two steps: in the first step, after the kinase reaction, a portion of ADP-Glo™ reagent equal in volume to the kinase reaction system is added to terminate the reaction and consume the remaining ATP; in the second step, a kinase detection reagent is added, which not only converts ADP into ATP, but also uses a coupled luciferase/luciferin reaction to detect newly synthesized ATP.
a. 10 mM compound stock solution (the present compound was dissolved in 100% DMSO to prepare the 10 mM stock solution) was diluted 50-fold to 200 μM with 100% DMSO, and then diluted in equal proportions (1:3) in a 96-well dilution plate (249944, Nunc). The gradient concentrations of the compound were 200 μM, 66.67 μM, 22.22 μM, 7.41 μM, 2.47 μM, 0.823 μM, 0.274 μM, 0.0914 μM, 0.0305 μM, 0.0102 μM, 0.00339 μM and 0.00113 μM.
b. 4.5 μL ACC1 working solution (BPS bioscience) (2.22 nM) was added to each well of a 384-well test plate (6007290, Perkin Elmer).
c. 0.5 μL of the serially diluted compound (prepared in step a) was added to each well of the 384-well test plate, which was centrifuged at 1000 rpm for 1 min and then incubated at room temperature for 15 min. […]
g. The chemiluminescence signal was detected with Perkin Elmer EnVision 2104. […]
The average value of the positive and negative control well and the standard deviation were calculated. The inhibition percentage was calculated according to the following formula: 100×[1−(compound−average value of positive control)/(average value of negative control-average value of positive control)]. […]

Chain of ACC2 (O00763 whole entry): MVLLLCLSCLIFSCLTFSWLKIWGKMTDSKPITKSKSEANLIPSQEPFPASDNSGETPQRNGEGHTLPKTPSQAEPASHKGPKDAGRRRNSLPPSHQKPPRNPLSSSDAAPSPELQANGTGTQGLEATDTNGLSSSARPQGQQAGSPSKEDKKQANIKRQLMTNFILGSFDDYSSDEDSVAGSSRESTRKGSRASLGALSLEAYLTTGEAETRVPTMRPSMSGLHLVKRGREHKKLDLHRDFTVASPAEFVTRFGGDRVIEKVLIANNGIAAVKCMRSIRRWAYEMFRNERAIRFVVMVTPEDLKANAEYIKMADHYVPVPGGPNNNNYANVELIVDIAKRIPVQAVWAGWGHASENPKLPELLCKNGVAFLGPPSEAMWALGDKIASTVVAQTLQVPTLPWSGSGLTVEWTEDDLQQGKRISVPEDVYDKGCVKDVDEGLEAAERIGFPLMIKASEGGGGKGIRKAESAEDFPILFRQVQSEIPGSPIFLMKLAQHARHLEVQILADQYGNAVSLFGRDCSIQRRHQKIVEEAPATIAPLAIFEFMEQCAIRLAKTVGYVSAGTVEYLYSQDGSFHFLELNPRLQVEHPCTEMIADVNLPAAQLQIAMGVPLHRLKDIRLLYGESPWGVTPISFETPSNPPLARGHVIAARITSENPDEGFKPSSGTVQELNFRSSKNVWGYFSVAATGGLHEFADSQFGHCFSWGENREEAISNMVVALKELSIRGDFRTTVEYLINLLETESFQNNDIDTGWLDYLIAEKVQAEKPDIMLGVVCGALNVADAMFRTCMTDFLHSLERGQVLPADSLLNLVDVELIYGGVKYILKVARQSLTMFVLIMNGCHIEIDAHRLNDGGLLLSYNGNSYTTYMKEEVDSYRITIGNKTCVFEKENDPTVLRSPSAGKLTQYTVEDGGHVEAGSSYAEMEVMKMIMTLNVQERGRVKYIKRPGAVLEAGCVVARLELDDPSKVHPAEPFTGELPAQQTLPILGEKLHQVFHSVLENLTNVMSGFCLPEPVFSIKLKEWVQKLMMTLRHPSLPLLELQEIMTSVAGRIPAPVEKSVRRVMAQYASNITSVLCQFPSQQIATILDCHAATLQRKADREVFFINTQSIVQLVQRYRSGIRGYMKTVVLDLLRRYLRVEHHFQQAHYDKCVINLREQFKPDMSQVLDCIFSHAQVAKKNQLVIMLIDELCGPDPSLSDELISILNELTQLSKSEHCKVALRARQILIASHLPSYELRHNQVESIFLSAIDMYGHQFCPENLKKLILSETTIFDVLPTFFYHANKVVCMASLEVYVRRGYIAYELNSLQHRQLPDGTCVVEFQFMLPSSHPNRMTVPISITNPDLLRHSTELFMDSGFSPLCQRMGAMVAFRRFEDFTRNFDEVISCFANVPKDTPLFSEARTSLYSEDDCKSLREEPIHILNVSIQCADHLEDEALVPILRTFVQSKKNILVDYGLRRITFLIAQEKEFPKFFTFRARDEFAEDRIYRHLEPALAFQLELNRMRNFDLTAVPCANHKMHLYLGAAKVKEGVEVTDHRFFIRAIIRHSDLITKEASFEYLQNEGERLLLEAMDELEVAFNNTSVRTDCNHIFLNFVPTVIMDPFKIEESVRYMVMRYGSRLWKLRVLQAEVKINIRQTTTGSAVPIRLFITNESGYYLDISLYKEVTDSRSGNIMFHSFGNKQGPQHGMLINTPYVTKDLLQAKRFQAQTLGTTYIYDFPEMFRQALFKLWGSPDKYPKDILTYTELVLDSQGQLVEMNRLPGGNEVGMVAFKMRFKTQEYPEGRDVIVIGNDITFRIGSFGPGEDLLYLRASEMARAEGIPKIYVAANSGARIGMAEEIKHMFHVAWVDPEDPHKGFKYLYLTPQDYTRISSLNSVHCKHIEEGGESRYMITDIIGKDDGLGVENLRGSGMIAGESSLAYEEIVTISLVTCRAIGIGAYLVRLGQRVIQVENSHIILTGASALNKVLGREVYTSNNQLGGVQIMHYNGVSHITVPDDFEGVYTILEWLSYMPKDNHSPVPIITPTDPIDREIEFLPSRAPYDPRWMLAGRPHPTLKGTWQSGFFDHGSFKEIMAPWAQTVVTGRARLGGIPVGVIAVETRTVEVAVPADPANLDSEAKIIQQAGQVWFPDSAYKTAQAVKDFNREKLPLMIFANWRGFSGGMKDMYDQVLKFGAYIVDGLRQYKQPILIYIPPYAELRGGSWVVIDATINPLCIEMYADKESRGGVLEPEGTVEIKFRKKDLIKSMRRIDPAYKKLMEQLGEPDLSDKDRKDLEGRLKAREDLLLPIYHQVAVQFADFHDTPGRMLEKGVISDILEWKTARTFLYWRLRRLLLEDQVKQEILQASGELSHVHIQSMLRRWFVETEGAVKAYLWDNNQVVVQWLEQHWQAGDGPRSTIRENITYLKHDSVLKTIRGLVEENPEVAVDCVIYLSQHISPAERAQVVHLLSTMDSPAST

| SMILES | IC50 [nM] |
| --- | --- |
| COc1ccccc1C(CN1C(=O)C2(CCC(C(=O)O)C2)C(=O)c2c1sc(-c1ncco1)c2C)OC1CCOCC1 (single isomer, unassigned) [Compound 5b, 7′-(2-(2-methoxyphenyl)-2-((tetrahydro-2H-pyran-4-yl)oxy)ethyl)-3′-methyl-2′-(oxazol-2-yl)-4′,6′-dioxo-6′,7′-dihydro-4′H-spiro[cyclopentane-1,5′-thieno[2,3-b]pyridine]-3-carboxylic Acid] | < 10 |
| COc1ccccc1C(CN1C(=O)C2(CC(C(=O)O)C2)C(=O)c2c1sc(-c1ncco1)c2C)OC1CCOCC1 (single isomer, unassigned) [Compound 8d, 7′-(2-(2-methoxyphenyl)-2-((tetrahydro-2H-pyran-4-yl)oxy)ethyl)-3′-methyl-2′-(oxazol-2-yl)-4′,6′-dioxo-6′,7′-dihydro-4′H-spiro[cyclobutane-1,5′-thieno[2,3-b]pyridine]-3-carboxylic Acid] | < 10 |
| COc1ccccc1[C@H](CN1c2sc(-c3ncco3)c(C)c2C(=O)[C@]2(C[C@H](C(=O)O)C2)C1=O)OC1CCOCC1 [Compound 8c, 7′-(2-(2-methoxyphenyl)-2-((tetrahydro-2H-pyran-4-yl)oxy)ethyl)-3′-methyl-2′-(oxazol-2-yl)-4′,6′-dioxo-6′,7′-dihydro-4′H-spiro[cyclobutane-1,5′-thieno[2,3-b]pyridine]-3-carboxylic Acid] | < 10 |
